PubChem BioAssay AID248 (DTP/NCI, 2004)
Where “and” joins values, the source holds several entries; their conditions need not be identical. Equal entries are not always repeated. Inconclusive results and toxic doses are left out. Rule as the data show it: active = T/C of 150% or more; inactive = T/C below 125%. Square brackets hold non-standard residues; d marks the D form. Peptide text beside a SMILES is read from it. * marks the point of attachment. Cbz = O=C(OCc1ccccc1)*; OBn = c1ccc(CO*)cc1; Sar = CNCC(=O)O

Tested on: L1210 leukemia ip in BDF1 mice, survival T/C
Assay: NCI In Vivo Anticancer Drug Screen. Data for tumor model L1210 Leukemia (intraperitoneal) in B6D2F1 (BDF1) mice
Details: endpoint: mean survival time, higher = longer survival
Procedure, shortened: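 Mice bearing the transplanted tumor received compound or vehicle. Survival of the treated group was divided by that of the vehicle-treated control group to give the ratio.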

[1] = dose: 100.0 mg/kg/injection, schedule: Q04DX002 (ip), vehicle: Klucel (hydroxypropylcellulose) (HPC)
[2] = dose: 200.0 mg/kg/injection, schedule: Q04DX002 (ip), vehicle: Klucel (hydroxypropylcellulose) (HPC)
[3] = dose: 100.0 mg/kg/injection, schedule: Q01DX009 (ip), vehicle: Klucel (hydroxypropylcellulose) (HPC)
[4] = dose: 200.0 mg/kg/injection, schedule: Q01DX009 (ip), vehicle: Klucel (hydroxypropylcellulose) (HPC)
[5] = dose: 400.0 mg/kg/injection, schedule: Q01DX009 (ip), vehicle: Klucel (hydroxypropylcellulose) (HPC)
[6] = dose: 100.0 mg/kg/injection, schedule: Q04DX003 (ip), vehicle: saline with Tween-80
[7] = dose: 200.0 mg/kg/injection, schedule: Q04DX003 (ip), vehicle: saline with Tween-80
[8] = dose: 400.0 mg/kg/injection, schedule: Q04DX003 (ip), vehicle: saline with Tween-80
[9] = dose: 100.0 mg/kg/injection, schedule: Q01DX009 (ip), vehicle: saline with Tween-80
[10] = dose: 200.0 mg/kg/injection, schedule: Q01DX009 (ip), vehicle: saline with Tween-80
[11] = dose: 100.0 mg/kg/injection, schedule: Q04DX003 (ip), vehicle: Klucel (hydroxypropylcellulose) (HPC)
[12] = dose: 200.0 mg/kg/injection, schedule: Q04DX003 (ip), vehicle: Klucel (hydroxypropylcellulose) (HPC)
[13] = dose: 400.0 mg/kg/injection, schedule: Q04DX003 (ip), vehicle: Klucel (hydroxypropylcellulose) (HPC)

Measured: T/C

COc1cccc2c1C(=O)c1c(O)c3c(c(O)c1C2=O)CC(O)(C(C)=O)CC3OC1OC(COC(C)=O)C(OC(C)=O)C(OC(C)=O)C1NC(=O)C(F)(F)F (stereo not given)
inactive: dose: 0.63 mg/kg/injection, schedule: Q01DX009 (ip), vehicle: Klucel (hydroxypropylcellulose) (HPC) 98 % of control | dose: 1.25 mg/kg/injection, schedule: Q01DX009 (ip), vehicle: Klucel (hydroxypropylcellulose) (HPC) 91 % of control | dose: 2.5 mg/kg/injection, schedule: Q01DX009 (ip), vehicle: Klucel (hydroxypropylcellulose) (HPC) 94 % of control | dose: 5.0 mg/kg/injection, schedule: Q01DX009 (ip), vehicle: Klucel (hydroxypropylcellulose) (HPC) 97 % of control | dose: 10.0 mg/kg/injection, schedule: Q01DX009 (ip), vehicle: Klucel (hydroxypropylcellulose) (HPC) 97 % of control

O=C(O)C1CCCCC1C(=O)NCc1ccccc1Cl (stereo not given)
inactive: [1] 100 % of control | [2] 100 % of control | dose: 400.0 mg/kg/injection, schedule: Q04DX002 (ip), vehicle: Klucel (hydroxypropylcellulose) (HPC) 96 % of control

Brc1cc(Br)c(/C=C/c2c(Br)cc(Br)cc2Br)c(Br)c1
inactive: [3] 104 % of control | [4] 102 % of control | [5] 105 % of control

CC(C)CCOC(c1ccc2c(c1)OCO2)C(C)Br (stereo not given)
inactive: [6] 94 % of control | [7] 87 % of control | [8] 94 % of control

S=c1[nH]c2c(Cl)c(Cl)c(Cl)c(Cl)c2[nH]1
inactive: [9] 90 % of control | [6] 100 % of control | [10] 95 % of control | [7] 98 % of control | [8] 102 % of control

Clc1nc(Nc2ccccc2)nc(Nc2ccccc2)n1
inactive: [11] 96 % of control | [12] 93 % of control | [13] 95 % of control

O=C(/C=C\c1ccc2c(c1)OCO2)/C=C/c1ccc2c(c1)OCO2
inactive: [3] 97 % of control | [11] 92 % of control | [6] 97 % of control | [4] 88 % of control | [12] 101 % of control | [7] 94 % of control | [5] 87 % of control | [13] 94 % of control | [8] 90 % of control

CC1CC(=O)NC(N)=N1 (stereo not given)
inactive: dose: 100.0 mg/kg/injection, schedule: Q01DX Z (ip), vehicle: saline 110 % of control | dose: 200.0 mg/kg/injection, schedule: Q01DX Z (ip), vehicle: saline 92 % of control

CCCCCCCCN1CCCC(OC(=O)N(C)C)C1 (stereo not given)
inactive: dose: 25.0 mg/kg/injection, schedule: Q04DX002 (ip), vehicle: saline 106 % of control | dose: 50.0 mg/kg/injection, schedule: Q04DX002 (ip), vehicle: saline 95 % of control | dose: 100.0 mg/kg/injection, schedule: Q04DX002 (ip), vehicle: saline 112 % of control

CCCCCCCCCCCCCCCCCCCOc1ccc(OCCCCCCCC)cc1
inactive: [6] 94 % of control | [7] 92 % of control | [8] 94 % of control

COC1OC(CN(CCOS(C)(=O)=O)CCOS(C)(=O)=O)C2OC(C)(C)OC12 (stereo not given)
inactive: dose: 50.0 mg/kg/injection, schedule: Q01DX001 (ip), vehicle: Klucel (hydroxypropylcellulose) (HPC) 114 % of control | dose: 100.0 mg/kg/injection, schedule: Q01DX001 (ip), vehicle: Klucel (hydroxypropylcellulose) (HPC) 108 % of control | dose: 200.0 mg/kg/injection, schedule: Q01DX001 (ip), vehicle: Klucel (hydroxypropylcellulose) (HPC) 107 % of control | dose: 400.0 mg/kg/injection, schedule: Q01DX001 (ip), vehicle: Klucel (hydroxypropylcellulose) (HPC) 105 % of control

CN(C)CCN1C(=O)NC(C)(C)C1=O
inactive: dose: 50.0 mg/kg/injection, schedule: Q04DX003 (ip), vehicle: saline 96 % of control | dose: 100.0 mg/kg/injection, schedule: Q04DX003 (ip), vehicle: saline 101 % of control | dose: 200.0 mg/kg/injection, schedule: Q04DX003 (ip), vehicle: saline 90 % of control | dose: 400.0 mg/kg/injection, schedule: Q04DX003 (ip), vehicle: saline 93 % of control

Cc1ccc(S(=O)(=O)N(Cl)Cl)cc1
inactive: dose: 6.25 mg/kg/injection, schedule: Q01DX009 (ip), vehicle: Klucel (hydroxypropylcellulose) (HPC) 115 % of control | dose: 6.25 mg/kg/injection, schedule: Q04DX003 (ip), vehicle: Klucel (hydroxypropylcellulose) (HPC) 94 % of control | dose: 12.5 mg/kg/injection, schedule: Q04DX003 (ip), vehicle: Klucel (hydroxypropylcellulose) (HPC) 98 % of control | dose: 25.0 mg/kg/injection, schedule: Q01DX009 (ip), vehicle: Klucel (hydroxypropylcellulose) (HPC) 94 % of control | dose: 25.0 mg/kg/injection, schedule: Q04DX003 (ip), vehicle: Klucel (hydroxypropylcellulose) (HPC) 102 % of control | dose: 100.0 mg/kg/injection, schedule: Q01DX001 (ip), vehicle: saline 110 % of control | dose: 200.0 mg/kg/injection, schedule: Q01DX001 (ip), vehicle: saline 101 % of control | dose: 400.0 mg/kg/injection, schedule: Q01DX001 (ip), vehicle: saline 108 % of control

COc1cc(Br)c2c(c1OC)C(=O)CC2
inactive: [3] 94 % of control | [11] 98 % of control | [4] 96 % of control | [12] 96 % of control | [5] 98 % of control | [13] 91 % of control

CC(C)=C(c1ccc(Br)cc1)c1ccc(Br)cc1
inactive: dose: 100.0 mg/kg/injection, schedule: Q01DX009 (ip), vehicle: acetone 93 % of control | [6] 105 % of control | [7] 97 % of control | [8] 94 % of control

NC(=O)Nc1nc(-c2ccccc2)no1
inactive: [3] 103 % of control | [11] 97 % of control | [4] 93 % of control | [12] 105 % of control | [5] 95 % of control | [13] 89 % of control

CCC(=O)Nc1cc(C(F)(F)F)ccc1Cl
inactive: [9] 96 % of control | [6] 103 % of control | [10] 96 % of control | [7] 98 % of control | dose: 400.0 mg/kg/injection, schedule: Q01DX009 (ip), vehicle: saline with Tween-80 98 % of control | [8] 98 % of control

CCCNC(=O)Oc1ccc(SC)cc1
inactive: dose: 100.0 mg/kg/injection, schedule: Q01DX001 (ip), vehicle: other 96 % of control | dose: 100.0 mg/kg/injection, schedule: Q01DX009 (ip), vehicle: other 94 % of control and 99 % of control | dose: 100.0 mg/kg/injection, schedule: Q04DX002 (ip), vehicle: other 93 % of control and 97 % of control | dose: 100.0 mg/kg/injection, schedule: Q04DX002 (ip), vehicle: saline with Tween-80 100 % of control | [6] 107 % of control | dose: 200.0 mg/kg/injection, schedule: Q01DX001 (ip), vehicle: other 98 % of control | dose: 200.0 mg/kg/injection, schedule: Q01DX009 (ip), vehicle: other 103 % of control | dose: 200.0 mg/kg/injection, schedule: Q04DX002 (ip), vehicle: other 97 % of control and 103 % of control | dose: 200.0 mg/kg/injection, schedule: Q04DX002 (ip), vehicle: saline with Tween-80 113 % of control | [7] 105 % of control | dose: 400.0 mg/kg/injection, schedule: Q01DX009 (ip), vehicle: other 89 % of control | dose: 400.0 mg/kg/injection, schedule: Q04DX002 (ip), vehicle: other 108 % of control and 86 % of control | dose: 400.0 mg/kg/injection, schedule: Q04DX002 (ip), vehicle: saline with Tween-80 106 % of control | [8] 100 % of control

CC12C(=O)OC(=O)C1C1C=CC2C1 (stereo not given)
inactive: [1] 102 % of control | dose: 100.0 mg/kg/injection, schedule: Q04DX003 (ip), vehicle: other 98 % of control | [2] 102 % of control | dose: 200.0 mg/kg/injection, schedule: Q04DX003 (ip), vehicle: other 102 % of control

FC(Cl)C(F)(F)Br (stereo not given)
inactive: dose: 75.0 mg/kg/injection, schedule: Q01DX005 (ip), vehicle: saline 95 % of control | dose: 150.0 mg/kg/injection, schedule: Q01DX005 (ip), vehicle: saline 101 % of control | dose: 300.0 mg/kg/injection, schedule: Q01DX005 (ip), vehicle: saline 98 % of control | dose: 600.0 mg/kg/injection, schedule: Q01DX001 (ip), vehicle: acetone 101 % of control

CN(CC(=O)OCc1ccccc1)C(=O)CNC(=O)CNC(=O)OCc1ccccc1 (Cbz-Gly-Gly-[Sar]-OBn)
inactive: [6] 92 % of control | [7] 90 % of control | [8] 95 % of control

O/N=C/c1nc2ccccc2s1
inactive: [11] 105 % of control | [12] 91 % of control | [13] 118 % of control
